In article PMC4420714 (Peptides, 2015):
“Also recorded” adds a separate entry of the source. Where two headings read alike, the source gives them in different places.

Key:
VPAC2-R [1] = target: T1, VPAC2-R (Homo sapiens, UniProt P41587); test: [3H]cAMP generation in VPAC2-R/PANC-1 cells; assay type: cell-based; settings: for [3H]cAMP VPAC2-R/PANC-1 % max (agonist class): VPAC2-R/PANC-1 cells, relative to PACAP38, up to 1 µM
T1 sequence (P41587 24-438): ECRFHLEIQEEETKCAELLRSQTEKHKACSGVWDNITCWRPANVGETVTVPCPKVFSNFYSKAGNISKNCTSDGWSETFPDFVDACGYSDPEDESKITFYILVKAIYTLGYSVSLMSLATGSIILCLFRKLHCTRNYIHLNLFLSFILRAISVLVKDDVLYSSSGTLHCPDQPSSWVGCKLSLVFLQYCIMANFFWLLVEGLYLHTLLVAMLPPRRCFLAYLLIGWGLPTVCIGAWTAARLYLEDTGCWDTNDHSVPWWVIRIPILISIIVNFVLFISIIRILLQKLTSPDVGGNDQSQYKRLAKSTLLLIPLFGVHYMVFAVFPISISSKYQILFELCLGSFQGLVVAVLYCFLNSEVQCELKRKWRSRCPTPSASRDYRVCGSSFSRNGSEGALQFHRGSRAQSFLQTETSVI

VPAC2-R [2] = target: T1, VPAC2-R; test: Binding of 125I-PACAP27 to VPAC2-R/PANC-1 cells; settings: ratio of binding IC50, analog vs native parent peptide
VPAC1-R [3] = target: T2, VPAC1-R (Homo sapiens, UniProt P32241); test: Binding of 125I-VIP to VPAC1-R/PANC-1 cells; settings: ratio of binding IC50, analog vs native parent peptide
T2 sequence (P32241 31-457): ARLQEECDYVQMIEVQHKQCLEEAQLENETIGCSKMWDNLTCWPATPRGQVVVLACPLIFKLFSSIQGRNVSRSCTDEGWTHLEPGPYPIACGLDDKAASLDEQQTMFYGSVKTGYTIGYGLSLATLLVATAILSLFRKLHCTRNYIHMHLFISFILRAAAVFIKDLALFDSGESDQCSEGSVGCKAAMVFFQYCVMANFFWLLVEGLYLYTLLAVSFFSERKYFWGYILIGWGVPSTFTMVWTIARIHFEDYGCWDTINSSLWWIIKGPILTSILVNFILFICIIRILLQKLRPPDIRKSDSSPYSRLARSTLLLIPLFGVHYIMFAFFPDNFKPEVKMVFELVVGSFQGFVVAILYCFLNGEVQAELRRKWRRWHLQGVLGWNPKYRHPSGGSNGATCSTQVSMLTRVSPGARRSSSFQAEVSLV

VPAC1-R [4] = target: T2, VPAC1-R; test: [3H]cAMP generation in VPAC1-R/PANC-1 cells; assay type: cell-based; settings: for [3H]cAMP VPAC1-R/PANC-1 % max (agonist class): relative to PACAP38, up to 1 µM
VPAC1-R [5] = target: T2, VPAC1-R; test: [3H]cAMP generation in T47D cells; assay type: cell-based; settings: for [3H]cAMP T47D % max (agonist class): relative to PACAP38, up to 1 µM
PAC1-R [6] = target: T3, PAC1-R (Homo sapiens, UniProt P41586); test: Binding of 125I-PACAP27 to PAC1-R stably transfected NIH 3T3 cells
T3 sequence (P41586 21-468): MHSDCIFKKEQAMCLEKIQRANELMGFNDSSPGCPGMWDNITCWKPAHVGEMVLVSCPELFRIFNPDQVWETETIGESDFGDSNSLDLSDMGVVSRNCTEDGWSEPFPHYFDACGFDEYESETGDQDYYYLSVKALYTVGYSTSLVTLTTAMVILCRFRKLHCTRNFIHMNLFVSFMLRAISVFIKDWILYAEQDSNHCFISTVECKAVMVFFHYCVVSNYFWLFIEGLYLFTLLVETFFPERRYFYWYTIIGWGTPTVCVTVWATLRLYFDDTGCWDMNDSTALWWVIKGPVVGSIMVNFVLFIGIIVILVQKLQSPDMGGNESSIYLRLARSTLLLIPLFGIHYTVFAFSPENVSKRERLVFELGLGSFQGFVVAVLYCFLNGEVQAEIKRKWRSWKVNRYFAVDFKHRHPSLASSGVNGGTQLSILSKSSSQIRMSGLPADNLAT

PAC1-R [7] = target: T3, PAC1-R; test: [3H]cAMP generation in PAC1-R cells; assay type: cell-based

| Substance | [3H]cAMP VPAC2-R/PANC-1 % max (agonist class) (VPAC2-R [1]) | decrease in affinity for VPAC2-R/PANC-1 cells compared to native PACAP38 (or PACAP27, VIP) (VPAC2-R [2]) | other results |
| --- | --- | --- | --- |
| [Pip^3,Ala^14,17,Aib^16,28,Lys^34,D-Lys^38]PACAP38 [Peptide P39] | no agonist activity; also recorded: No Act |  |  |
| [N-Ac-His^1,Pip^3]PACAP38 [Peptide P27] | Ag (1 µM, 18) | 15–500 fold |  |
| [Me-Lys^15]PACAP27 [Peptide P2] | Ag (1 µM, 19) | 6–132 fold | decrease in affinity for VPAC1-R/PANC-1 cells compared to native PACAP38 (or PACAP27, VIP) (VPAC1-R [3]): 100–500 fold; [3H]cAMP VPAC1-R/PANC-1 % max (agonist class) (VPAC1-R [4]; VPAC1-R/PANC-1 cells): Ag (1 µM, 68); [3H]cAMP T47D % max (agonist class) (VPAC1-R [5]): No Act |
| [Me-Asp^3,Aib^16,28,Lys^34,D-Lys^38]PACAP38 [Peptide P33] |  | 40–85 fold |  |
| [D-Ser^2,Lys(Palmitoyl)^38]PACAP38 [Peptide P13] |  | 16–21 fold |  |
| [Pip^3,Aib^16,28,Ala^17,Lys^34,D-Lys^38]PACAP38 [Peptide P35] | Ag (1 µM, 33) | 50–400 fold |  |
| [Sar^4]PACAP27 [Peptide P22] | no agonist activity; also recorded: No Act | 6–132 fold | decrease in affinity for VPAC1-R/PANC-1 cells compared to native PACAP38 (or PACAP27, VIP) (VPAC1-R [3]): 100–500 fold; [3H]cAMP VPAC1-R/PANC-1 % max (agonist class) (VPAC1-R [4]; VPAC1-R/PANC-1 cells): no agonist activity; also recorded: No Act; [3H]cAMP T47D % max (agonist class) (VPAC1-R [5]): No Act |
| [Pip^3,Aib^16,28,Ala^17,20,Lys^34,D-Lys^38]PACAP38 [Peptide P41] | no agonist activity; also recorded: No Act |  |  |
| [Aib^16,Ala^17,Lys^34]PACAP38 [Peptide P30] |  | 2-to-6 fold |  |
| [Sar^3]PACAP27 [Peptide P6] | no agonist activity; also recorded: No Act | 6–132 fold | decrease in affinity for VPAC1-R/PANC-1 cells compared to native PACAP38 (or PACAP27, VIP) (VPAC1-R [3]): 100–500 fold; [3H]cAMP T47D % max, agonist activity at 1 µM, still increasing (VPAC1-R [5]): Ag (1 µM, 69) % max; [3H]cAMP T47D % max (agonist class) (VPAC1-R [5]): Ag (1 µM, 69) |
| [Pro^3]PACAP27 [Peptide P5] | no agonist activity; also recorded: No Act | 6–132 fold | decrease in affinity for VPAC1-R/PANC-1 cells compared to native PACAP38 (or PACAP27, VIP) (VPAC1-R [3]): 100–500 fold; [3H]cAMP VPAC1-R/PANC-1 % max (agonist class) (VPAC1-R [4]; VPAC1-R/PANC-1 cells): Ag (1 µM, 23); [3H]cAMP T47D % max, agonist activity at 1 µM, still increasing (VPAC1-R [5]): Ag (1 µM, 16) % max; [3H]cAMP T47D % max (agonist class) (VPAC1-R [5]): Ag (1 µM, 16) |
| [Hyp^3,Ala^16,17]PACAP38 [Peptide P20] | Ag (1 µM, 35) | 50–400 fold |  |
| [Pip^3]PACAP38 [Peptide P26] | no agonist activity; also recorded: No Act | 15–500 fold |  |
| [Pip^3,Aib^16,Ala^17]PACAP27 [Peptide P7] | no agonist activity; also recorded: No Act |  | decrease in affinity for VPAC1-R/PANC-1 cells compared to native PACAP38 (or PACAP27, VIP) (VPAC1-R [3]): > 1,000 fold; [3H]cAMP VPAC1-R/PANC-1 % max (agonist class) (VPAC1-R [4]; VPAC1-R/PANC-1 cells): no agonist activity; also recorded: No Act; [3H]cAMP T47D % max (agonist class) (VPAC1-R [5]): No Act |
| [Pip^3,Aib^16,28,Ala^17,21,Lys^34,D-Lys^38]PACAP38 [Peptide P40] | no agonist activity; also recorded: No Act |  |  |
| [Lys(palmitoyl)^38]PACAP38 [Peptide P12] |  | 16–21 fold |  |
| [N-Ac-His^1,Pip^3,Aib^16,Ala^17]PACAP27 [Peptide P8] | Ag (1 µM, 13) |  | decrease in affinity for VPAC1-R/PANC-1 cells compared to native PACAP38 (or PACAP27, VIP) (VPAC1-R [3]): > 1,000 fold; [3H]cAMP VPAC1-R/PANC-1 % max of partial agonist (VPAC1-R [4]; VPAC1-R/PANC-1 cells, partial agonist maximum): pAg (24) % max; [3H]cAMP VPAC1-R/PANC-1 % max (agonist class) (VPAC1-R [4]; VPAC1-R/PANC-1 cells): partial agonists; also recorded: pAg (24); [3H]cAMP T47D % max (agonist class) (VPAC1-R [5]): No Act |
| [Iac^1,Ala^16,17,D-Lys^38]PACAP38 [Peptide P29] |  | 2-to-6 fold |  |
| [Iaa^1,D-Tyr^2,Ala^22]PACAP38 [Peptide P49] |  | 50–400 fold |  |
| [Sar^3]PACAP38 [Peptide P19] | Ag (1 µM, 35) | 15–500 fold |  |
| [β-Ala^3,Ala^16,17]PACAP38 [Peptide P21] | no agonist activity; also recorded: No Act | 50–400 fold |  |
| [Ala^16,17,D-Lys^38]PACAP38 [Peptide P23] |  | 2-to-6 fold |  |
| [Iaa^1,D-Ser^2,Ala^22]PACAP38 [Peptide P48] | Ag (1 µM, 43) | 50–400 fold |  |
| [Aib^2]PACAP38 [Peptide P15] |  |  | decrease in affinity for PAC1-R cells compared to native PACAP38 (or PACAP27) (PAC1-R [6]): 11–30 fold; lower affinity for PAC1-R cells than VPAC2-R/PANC-1 cells (PAC1-R [6]): 2–9 fold |
| [N-Ac-His^1,Ala^16,17,D-Lys^38]PACAP38 [Peptide P28] |  | 2-to-6 fold |  |
| vasoactive intestinal peptide [VIP, reference compound] |  |  | lower affinity for PAC1-R cells than VPAC1-R/PANC-1 cells (PAC1-R [6]; binding IC50 ratio, VPAC1-R preferring): > 1,000 fold; lower affinity for PAC1-R cells than VPAC2-R/PANC-1 cells (PAC1-R [6]; binding IC50 ratio, VPAC2-R preferring): > 400 fold; [3H]cAMP PAC1-R % max (agonist class) (PAC1-R [7]): No Act; less potent than PACAP38 and PACAP27 at stimulating PAC1-R cells (PAC1-R [7]; cAMP generation): > 800 fold; maximal increase in cAMP, PAC1-R cells (PAC1-R [7]; over control): 4.1 ± 1.5 fold; maximal increase in cAMP, VPAC1-R/PANC-1 cells (VPAC1-R [4]): 5.0 ± 0.7 fold; maximal increase in cAMP, VPAC2-R/PANC-1 cells (VPAC2-R [1]): 6.5 ± 2.0 fold |
| [Pip^3,Ala^15,17,Aib^16,28,Lys^34,D-Lys^38]PACAP38 [Peptide P38] | no agonist activity; also recorded: No Act |  |  |
| [Hyp^3,Aib^16,Ala^17,Lys^34]PACAP38 [Peptide P31] |  | 50–400 fold |  |
| [Aib^16,28,Ala^17,Lys^34,D-Lys^38]PACAP38 [Peptide P34] |  | 2-to-6 fold |  |
| [Pro^3]PACAP38 [Peptide P18] | Ag (1 µM, 26) | 15–500 fold |  |
